Results reported in ChEMBL document CHEMBL1201862, “PubChem BioAssay data set” (2004).
Calls of active or inactive are those of the source.

Experiments:
[1] = biological target: Metabotropic glutamate receptor 3 (Rattus norvegicus, UniProt P31422); assay: inhibition of rat mGlu3 glutamate signaling – HEK/GIRK cells, thallium flux, dose response (AID 651839); assay type: functional
[2] = biological target: Potassium channel subfamily K member 3 (Homo sapiens, UniProt O14649); assay: inhibition of human KCNK3 channel flux – CHO cells, FluxOR thallium flux, SAR follow-up (AID 652212); assay type: functional
[3] = biological target: Potassium channel subfamily K member 9 (Homo sapiens, UniProt Q9NPC2); assay: KCNK9 flux blockade, concentration-response – cell-based, FluxOR thallium flux, selectivity assay for TASK1 inhibitor project, SAR follow-up (AID 652211); assay type: functional;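 further: potency is for inhibitors of the channel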
[4] = biological target: Metabotropic glutamate receptor 5 (Rattus norvegicus, UniProt P31424); assay: Identification of a glycine sulfonamide based non-MPEP site positive allosteric potentiator (PAM) of mGlu5 (calcium_assay).; assay type: functional
[5] = biological target: T1, Oxysterols receptor LXR-beta (Homo sapiens, UniProt P55055); assay type: functional, cell-based;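 further: agonist activity at LXR measured by a cell-based luminescence readout across a dose range, run as a counterscreen for daf-12 agonists; HEK293 cells with Gal4-LXR fusion and GAL4-driven luciferase reporter; potency for activation of Gal4-LXR reporter so compounds are agonists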
T1 sequence (P55055 whole entry): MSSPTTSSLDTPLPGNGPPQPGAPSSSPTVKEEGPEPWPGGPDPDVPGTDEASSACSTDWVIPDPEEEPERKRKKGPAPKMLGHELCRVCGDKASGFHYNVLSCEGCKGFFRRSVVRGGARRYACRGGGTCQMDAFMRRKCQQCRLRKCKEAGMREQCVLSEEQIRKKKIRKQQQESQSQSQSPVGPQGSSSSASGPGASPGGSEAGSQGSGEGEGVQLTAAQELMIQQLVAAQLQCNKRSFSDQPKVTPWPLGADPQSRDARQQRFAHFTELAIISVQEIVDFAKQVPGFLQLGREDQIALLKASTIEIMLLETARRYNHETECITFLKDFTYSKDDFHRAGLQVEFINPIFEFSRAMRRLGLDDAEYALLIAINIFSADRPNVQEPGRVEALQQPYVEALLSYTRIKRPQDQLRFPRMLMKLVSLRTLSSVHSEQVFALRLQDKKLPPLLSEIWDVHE

[6] = viability loss in CEM21 cells – cell-based, plate reader, dry powder, cytotoxicity control, dose response (AID 687026); assay type: functional
Cytochrome P450 2C19 = Cytochrome P450 2C19 (Homo sapiens, UniProt P33261); assay: qHTS Assay for Inhibitors and Substrates of Cytochrome P450 2C19. [Related pubchem assays: 410 ]; assay type: ADME; settings: read-out: Potency
Cytochrome P450 3A4 = Cytochrome P450 3A4 (Homo sapiens, UniProt P08684); settings: Potency;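 further: confirmatory qHTS run detecting inhibitors and substrates of CYP3A4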
Chain of Cytochrome P450 3A4 (P08684 whole entry): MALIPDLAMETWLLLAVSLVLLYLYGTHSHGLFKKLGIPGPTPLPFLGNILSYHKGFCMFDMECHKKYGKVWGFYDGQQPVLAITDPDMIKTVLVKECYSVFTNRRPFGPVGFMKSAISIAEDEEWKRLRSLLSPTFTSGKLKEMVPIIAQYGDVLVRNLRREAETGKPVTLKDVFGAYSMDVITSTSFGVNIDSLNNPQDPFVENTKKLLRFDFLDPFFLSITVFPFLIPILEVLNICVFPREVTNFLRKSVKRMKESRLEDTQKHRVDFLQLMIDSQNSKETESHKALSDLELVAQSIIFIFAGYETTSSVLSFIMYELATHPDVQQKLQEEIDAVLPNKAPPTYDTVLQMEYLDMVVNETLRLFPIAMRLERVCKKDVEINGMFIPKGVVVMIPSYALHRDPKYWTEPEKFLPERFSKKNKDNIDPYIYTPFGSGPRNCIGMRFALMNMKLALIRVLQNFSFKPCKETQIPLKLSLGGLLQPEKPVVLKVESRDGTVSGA

Chain of Cytochrome P450 2C19 (P33261 whole entry): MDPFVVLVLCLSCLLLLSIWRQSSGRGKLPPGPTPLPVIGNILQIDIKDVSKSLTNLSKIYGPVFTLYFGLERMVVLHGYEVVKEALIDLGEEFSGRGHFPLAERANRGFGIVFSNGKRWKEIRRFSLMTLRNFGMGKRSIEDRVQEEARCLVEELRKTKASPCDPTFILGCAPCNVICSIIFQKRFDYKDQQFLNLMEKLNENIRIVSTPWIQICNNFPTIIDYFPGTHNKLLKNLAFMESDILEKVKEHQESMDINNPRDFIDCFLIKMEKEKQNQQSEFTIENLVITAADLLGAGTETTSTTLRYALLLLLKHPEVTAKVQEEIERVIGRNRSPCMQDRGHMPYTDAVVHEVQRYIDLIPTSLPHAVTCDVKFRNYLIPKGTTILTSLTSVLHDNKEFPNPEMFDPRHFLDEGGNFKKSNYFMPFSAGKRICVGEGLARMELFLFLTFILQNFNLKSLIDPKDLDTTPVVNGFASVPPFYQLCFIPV
Chain of Potassium channel subfamily K member 9 (Q9NPC2 whole entry): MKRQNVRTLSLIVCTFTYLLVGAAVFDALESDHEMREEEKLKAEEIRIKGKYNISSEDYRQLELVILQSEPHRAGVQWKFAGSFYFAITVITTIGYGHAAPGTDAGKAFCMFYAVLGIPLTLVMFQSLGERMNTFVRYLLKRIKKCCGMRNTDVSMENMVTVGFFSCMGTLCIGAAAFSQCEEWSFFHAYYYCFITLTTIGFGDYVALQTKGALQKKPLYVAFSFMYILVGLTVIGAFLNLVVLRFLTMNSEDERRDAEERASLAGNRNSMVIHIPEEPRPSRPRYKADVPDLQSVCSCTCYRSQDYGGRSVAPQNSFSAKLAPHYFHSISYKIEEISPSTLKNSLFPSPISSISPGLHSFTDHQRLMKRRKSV
Chain of Metabotropic glutamate receptor 5 (P31424 whole entry, the tested form may be a part): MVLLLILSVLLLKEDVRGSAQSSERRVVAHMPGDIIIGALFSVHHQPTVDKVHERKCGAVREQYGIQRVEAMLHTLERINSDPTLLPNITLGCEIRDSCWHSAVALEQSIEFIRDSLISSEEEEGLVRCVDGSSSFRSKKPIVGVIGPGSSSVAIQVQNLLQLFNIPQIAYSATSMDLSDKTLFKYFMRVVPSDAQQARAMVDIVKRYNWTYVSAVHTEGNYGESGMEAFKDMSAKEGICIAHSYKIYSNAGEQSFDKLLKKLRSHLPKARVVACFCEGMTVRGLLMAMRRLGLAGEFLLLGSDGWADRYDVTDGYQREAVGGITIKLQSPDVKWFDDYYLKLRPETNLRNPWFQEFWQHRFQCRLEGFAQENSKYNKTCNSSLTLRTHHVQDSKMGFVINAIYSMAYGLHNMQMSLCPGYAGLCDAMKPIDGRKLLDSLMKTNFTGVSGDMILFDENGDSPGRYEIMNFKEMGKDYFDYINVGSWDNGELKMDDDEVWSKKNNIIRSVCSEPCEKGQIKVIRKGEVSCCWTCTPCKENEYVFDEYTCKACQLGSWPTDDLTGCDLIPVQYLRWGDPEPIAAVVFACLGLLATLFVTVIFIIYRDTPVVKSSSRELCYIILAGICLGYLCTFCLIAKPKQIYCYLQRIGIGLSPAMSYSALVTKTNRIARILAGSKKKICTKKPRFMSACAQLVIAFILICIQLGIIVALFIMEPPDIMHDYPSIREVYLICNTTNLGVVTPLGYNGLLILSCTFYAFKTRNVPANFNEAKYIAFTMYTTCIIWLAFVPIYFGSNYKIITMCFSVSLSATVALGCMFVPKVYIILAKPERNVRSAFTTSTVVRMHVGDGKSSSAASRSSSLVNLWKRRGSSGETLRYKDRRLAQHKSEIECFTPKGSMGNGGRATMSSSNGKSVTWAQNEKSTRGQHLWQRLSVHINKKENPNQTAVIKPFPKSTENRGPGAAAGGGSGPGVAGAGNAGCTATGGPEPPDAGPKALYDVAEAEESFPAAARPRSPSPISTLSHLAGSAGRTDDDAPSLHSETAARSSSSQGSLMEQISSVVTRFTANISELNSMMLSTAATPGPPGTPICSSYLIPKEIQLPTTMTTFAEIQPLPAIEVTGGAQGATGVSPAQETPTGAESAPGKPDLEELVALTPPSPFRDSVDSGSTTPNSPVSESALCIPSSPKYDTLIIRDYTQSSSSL
Chain of Potassium channel subfamily K member 3 (O14649 whole entry): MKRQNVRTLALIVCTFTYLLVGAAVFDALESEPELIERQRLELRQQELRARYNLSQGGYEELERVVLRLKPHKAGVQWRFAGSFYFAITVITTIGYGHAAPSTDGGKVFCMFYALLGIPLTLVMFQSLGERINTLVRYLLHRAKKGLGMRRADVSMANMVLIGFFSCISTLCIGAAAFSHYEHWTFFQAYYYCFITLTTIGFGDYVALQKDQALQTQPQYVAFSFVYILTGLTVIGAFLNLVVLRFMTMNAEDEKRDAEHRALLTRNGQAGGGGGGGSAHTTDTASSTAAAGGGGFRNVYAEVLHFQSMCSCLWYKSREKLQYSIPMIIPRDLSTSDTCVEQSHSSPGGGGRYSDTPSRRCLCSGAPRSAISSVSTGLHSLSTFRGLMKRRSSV
Chain of Metabotropic glutamate receptor 3 (P31422 whole entry): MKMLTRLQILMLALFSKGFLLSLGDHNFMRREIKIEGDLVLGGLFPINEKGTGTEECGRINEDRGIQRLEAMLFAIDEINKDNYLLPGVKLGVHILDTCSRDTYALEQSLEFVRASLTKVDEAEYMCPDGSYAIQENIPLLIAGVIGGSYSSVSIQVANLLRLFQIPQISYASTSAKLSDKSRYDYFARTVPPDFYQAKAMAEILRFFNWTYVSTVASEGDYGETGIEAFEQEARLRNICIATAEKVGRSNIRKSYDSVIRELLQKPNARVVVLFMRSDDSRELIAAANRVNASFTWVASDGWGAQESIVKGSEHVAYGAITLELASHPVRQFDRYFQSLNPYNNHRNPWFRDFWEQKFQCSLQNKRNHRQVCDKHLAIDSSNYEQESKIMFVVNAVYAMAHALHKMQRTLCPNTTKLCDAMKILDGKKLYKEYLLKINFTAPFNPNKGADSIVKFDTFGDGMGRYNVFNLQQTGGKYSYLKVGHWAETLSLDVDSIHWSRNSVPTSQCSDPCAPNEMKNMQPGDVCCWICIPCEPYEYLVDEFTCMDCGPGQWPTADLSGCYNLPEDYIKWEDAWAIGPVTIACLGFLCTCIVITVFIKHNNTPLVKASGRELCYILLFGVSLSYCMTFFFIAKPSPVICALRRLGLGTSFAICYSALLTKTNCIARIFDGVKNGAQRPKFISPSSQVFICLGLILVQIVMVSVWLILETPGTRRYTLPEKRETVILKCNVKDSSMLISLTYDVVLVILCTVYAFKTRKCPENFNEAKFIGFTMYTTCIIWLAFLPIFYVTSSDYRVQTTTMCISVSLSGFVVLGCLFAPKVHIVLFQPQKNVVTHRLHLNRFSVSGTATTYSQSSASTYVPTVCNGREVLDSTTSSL

Q: Which IC50 [1] does the source give for COc1ccc(-c2ccc3cc(C(=O)N4CCCC(CO)C4)ccc3c2)c(OC)c1 (stereo not drawn) here?
A: Its IC50 is 9.87 µM (active).

Q: Which results are given for COc1ccccc1C(=O)Nc1cccc(NC(=O)c2cccc3ccccc23)c1?
A: IC50 [2]: 0.003 µM (active); IC50 [3]: 0.24 µM (active)

Q: For CC(C(=O)Nc1ccc(F)nc1)N(c1ccccc1Cl)S(C)(=O)=O (stereo not drawn), which EC50 [4] is on record?
A: Its EC50 is 10 µM (inconclusive).

Q: Which EC50 [5] does the source give for Cc1scc(C(=O)N/N=C/c2ccsc2)c1C here?
A: The EC50 was > 67.6 µM (inactive).

Q: For N=C1Sc2ccccc2C2=NCCCN12, which AC50 [6] is on record?
A: Its AC50 is > 70 µM (inactive).

Q: What about the AC50 (Cytochrome P450 2C19) of the same compound?
A: The AC50 was 6.31 µM (inconclusive).

Q: What about the AC50 (Cytochrome P450 3A4) of the same compound?
A: The AC50 was 25.1 µM (inconclusive).
